# Data from patent US20070128217A1 (priority 2003, published 2007).
# What was measured:
# [1] = tested on: antibodies in sera from SARS patients (sera 1a, 1b, 2, 6, 37, 62, London, SARS-yellow, SARS-green); type: binding, human; parameters: Binding of serum 6 to linear peptides of protein X1 of SARS-CoV Urbani / Binding of serum 37 to linear peptides of protein X1 of SARS-CoV Urbani / Binding of serum 6 to looped/cyclic peptide (PEPSCAN-ELISA) / Binding of serum 37 to looped/cyclic peptide (PEPSCAN-ELISA) / Binding of serum 37 to looped/cyclic peptides of protein X1 of SARS-CoV Urbani / Binding of serum 6 to linear peptides of protein X2 / Binding of serum 37 to linear peptides of protein X2 / Binding of serum 37 to looped/cyclic peptides of protein X2 of SARS-CoV Urbani / Binding of serum 6 to linear peptides of protein M of SARS-CoV Urbani / Binding of serum 37 to linear peptides of protein M of SARS-CoV Urbani / Binding of serum 6 to looped/cyclic peptides of protein M of SARS-CoV Urbani / Binding of serum 37 to looped/cyclic peptides of protein M of SARS-CoV Urbani / Binding of serum 6 to linear peptides of protein X3 of SARS-CoV Urbani / Binding of serum 37 to linear peptides of protein X3 of SARS-CoV Urbani / Binding of serum 37 to looped/cyclic peptides of protein X3 of SARS-CoV Urbani / Binding of serum 6 to linear peptides of protein X4 of SARS-CoV Urbani / Binding of serum 37 to linear peptides of protein X4 of SARS-CoV Urbani / Binding of serum 37 to looped/cyclic peptides of protein X4 of SARS-CoV Urbani / Binding of serum 6 to linear peptides of protein X5 of SARS-CoV Urbani / Binding of serum 37 to linear peptides of protein X5 of SARS-CoV Urbani / Binding of serum 37 to looped/cyclic peptides of protein X5 of SARS-CoV Urbani / Binding of serum 6 to linear peptides of protein N of SARS-CoV Urbani / Binding of serum 37 to linear peptides of protein N of SARS-CoV Urbani / Binding of serum 6 to linear peptide (PEPSCAN-ELISA) / Binding of serum 1a to looped/cyclic peptides of protein N of SARS-CoV Urbani / Binding of serum 1b to looped/cyclic peptides of protein N of SARS-CoV Urbani / Binding of serum 2 to looped/cyclic peptides of protein N of SARS-CoV Urbani / Binding of serum 6 to looped/cyclic peptides of protein N of SARS-CoV Urbani / Binding of serum 37 to looped/cyclic peptides of protein N of SARS-CoV Urbani / Binding of serum 62 to looped/cyclic peptides of protein N of SARS-CoV Urbani / Binding of serum London to looped/cyclic peptides of protein N of SARS-CoV Urbani / Binding of serum SARS-green to looped/cyclic peptides of protein N of SARS-CoV Urbani: unit not given here
# [2] = tested on: control sera (pooled serum of ten healthy LUMC hospital workers; commercial negative donor pooled serum from the Dutch bloodbank); type: binding, human; parameters: Binding of Control serum LUMC to linear peptides / Binding of Control serum Blood-bank to linear peptides / Binding of Control serum LUMC to looped peptides / Binding of Control Serum Blood-Bank to Looped peptides / Binding of Control serum LUMC to linear peptides of the protein M of SARS-CoV Urbani / Binding of Control serum Blood-bank to linear peptides of the protein M of SARS-CoV Urbani / Binding of Control serum LUMC to looped peptides of the protein M of SARS-CoV Urbani / Binding of Control Serum Blood-Bank to Looped peptides of the protein M of SARS-CoV Urbani: unit not given here
# [3] = tested on: rabbit serum obtained by immunizing a rabbit with the SARS-CoV strain Frankfurt 1; type: binding; parameters: Binding of a rabbit serum to linear peptides / Binding of a rabbit serum to looped peptides / Rabbit serum linear peptides / Rabbit serum looped peptides / Binding of a rabbit serum to linear peptides of protein N of SARS-CoV Urbani (Rabbit serum linear peptides) / Binding of a rabbit serum to looped/cyclic peptides of protein N of SARS-CoV Urbani (Rabbit serum looped peptides): unit not given here
sequence,measurement,setting,value
TAWLCALGKVLPFHR,Binding of serum 1a to linear peptides of protein X5 of SARS-CoV Urbani,[1],0.7
same,Binding of serum 1a to looped/cyclic peptides of protein X5 of SARS-CoV Urbani,[1],0.4
same,Binding of serum 1b to linear peptides of protein X5 of SARS-CoV Urbani,[1],0.5
same,Binding of serum 1b to looped/cyclic peptides of protein X5 of SARS-CoV Urbani,[1],0.3
same,Binding of serum 2 to linear peptides of protein X5 of SARS-CoV Urbani,[1],0.6
same,Binding of serum 2 to looped/cyclic peptides of protein X5 of SARS-CoV Urbani,[1],0.6
same,Binding of serum 6 to linear peptides of protein X5 of SARS-CoV Urbani,[1],0.5
same,Binding of serum 6 to looped/cyclic peptides of protein X5 of SARS-CoV Urbani,[1],0.9
same,Binding of serum 37 to linear peptides of protein X5 of SARS-CoV Urbani,[1],0.7
same,Binding of serum 37 to looped/cyclic peptides of protein X5 of SARS-CoV Urbani,[1],0.4
same,Binding of serum 62 to linear peptides of protein X5 of SARS-CoV Urbani,[1],0.7
same,Binding of serum 62 to looped/cyclic peptides of protein X5 of SARS-CoV Urbani,[1],0.7
same,Binding of serum London to linear peptides of protein X5 of SARS-CoV Urbani,[1],0.6
same,Binding of serum London to looped/cyclic peptides of protein X5 of SARS-CoV Urbani,[1],1.3
same,Binding of serum SARS-green to linear peptides of protein X5 of SARS-CoV Urbani,[1],0.7
same,Binding of serum SARS-green to looped/cyclic peptides of protein X5 of SARS-CoV Urbani,[1],0.2
same,Binding of serum SARS-yellow to linear peptides of protein X5 of SARS-CoV Urbani,[1],0.3
same,Binding of serum SARS-yellow to looped/cyclic peptides of protein X5 of SARS-CoV Urbani,[1],0.8
same,Binding of Control Serum Blood-Bank to Looped peptides,[2],0.4
same,Binding of Control serum Blood-bank to linear peptides,[2],0.7
same,Binding of Control serum LUMC to linear peptides,[2],0.4
same,Binding of Control serum LUMC to looped peptides,[2],0.6
same,Rabbit serum linear peptides,[3],0.7
same,Rabbit serum looped peptides,[3],0.8
PLRGTIVTRPLMESE,Binding of serum 1a to linear peptides of protein M of SARS-CoV Urbani,[1],0.8
same,Binding of serum 1b to linear peptides of protein M of SARS-CoV Urbani,[1],0.7
same,Binding of serum 2 to linear peptides of protein M of SARS-CoV Urbani,[1],0.4
same,Binding of serum 6 to linear peptides of protein M of SARS-CoV Urbani,[1],0.4
same,Binding of serum 37 to linear peptides of protein M of SARS-CoV Urbani,[1],0.8
same,Binding of serum 62 to linear peptides of protein M of SARS-CoV Urbani,[1],0.7
same,Binding of serum London to linear peptides of protein M of SARS-CoV Urbani,[1],0.3
same,Binding of serum SARS-green to linear peptides of protein M of SARS-CoV Urbani,[1],0.5
same,Binding of serum SARS-yellow to linear peptides of protein M of SARS-CoV Urbani,[1],0.0
same,"Recognition of the peptide by sera of SARS-CoV infected individuals, and form (linear, looped/cyclic) in which it is recognized",[1],recognized in looped/cyclic form
same,Binding of Control Serum Blood-Bank to Looped peptides of the protein M of SARS-CoV Urbani,[2],0.5
same,Binding of Control serum Blood-bank to linear peptides of the protein M of SARS-CoV Urbani,[2],0.6
same,Binding of Control serum LUMC to linear peptides of the protein M of SARS-CoV Urbani,[2],0.3
same,Binding of Control serum LUMC to looped peptides of the protein M of SARS-CoV Urbani,[2],0.8
same,Rabbit serum linear peptides,[3],0.4
same,Rabbit serum looped peptides,[3],0.4
VLPFHRWHTMVQTCT,Binding of serum 1a to linear peptides of protein X5 of SARS-CoV Urbani,[1],0.8
same,Binding of serum 1a to looped/cyclic peptides of protein X5 of SARS-CoV Urbani,[1],0.7
same,Binding of serum 1b to linear peptides of protein X5 of SARS-CoV Urbani,[1],0.6
same,Binding of serum 1b to looped/cyclic peptides of protein X5 of SARS-CoV Urbani,[1],0.5
same,Binding of serum 2 to linear peptides of protein X5 of SARS-CoV Urbani,[1],0.7
same,Binding of serum 2 to looped/cyclic peptides of protein X5 of SARS-CoV Urbani,[1],0.7
same,Binding of serum 6 to linear peptides of protein X5 of SARS-CoV Urbani,[1],0.5
same,Binding of serum 6 to looped/cyclic peptides of protein X5 of SARS-CoV Urbani,[1],0.4
same,Binding of serum 37 to linear peptides of protein X5 of SARS-CoV Urbani,[1],0.7
same,Binding of serum 37 to looped/cyclic peptides of protein X5 of SARS-CoV Urbani,[1],0.5
same,Binding of serum 62 to linear peptides of protein X5 of SARS-CoV Urbani,[1],0.7
same,Binding of serum 62 to looped/cyclic peptides of protein X5 of SARS-CoV Urbani,[1],0.3
same,Binding of serum London to linear peptides of protein X5 of SARS-CoV Urbani,[1],0.8
same,Binding of serum London to looped/cyclic peptides of protein X5 of SARS-CoV Urbani,[1],0.2
same,Binding of serum SARS-green to linear peptides of protein X5 of SARS-CoV Urbani,[1],0.6
same,Binding of serum SARS-green to looped/cyclic peptides of protein X5 of SARS-CoV Urbani,[1],1.4
same,Binding of serum SARS-yellow to linear peptides of protein X5 of SARS-CoV Urbani,[1],0.4
same,Binding of serum SARS-yellow to looped/cyclic peptides of protein X5 of SARS-CoV Urbani,[1],0.3
same,Binding of Control Serum Blood-Bank to Looped peptides,[2],0.6
same,Binding of Control serum Blood-bank to linear peptides,[2],0.6
same,Binding of Control serum LUMC to linear peptides,[2],0.5
same,Binding of Control serum LUMC to looped peptides,[2],0.0
same,Rabbit serum linear peptides,[3],0.6
same,Rabbit serum looped peptides,[3],0.0
YYQLESTQITTDTGI,Binding of serum 1a to linear peptides of protein X1 of SARS-CoV Urbani,[1],0.7
same,Binding of serum 1a to looped/cyclic peptides of protein X1 of SARS-CoV Urbani,[1],0.4
same,Binding of serum 1b to linear peptides of protein X1 of SARS-CoV Urbani,[1],0.7
same,Binding of serum 1b to looped/cyclic peptides of protein X1 of SARS-CoV Urbani,[1],0.3
same,Binding of serum 2 to linear peptides of protein X1 of SARS-CoV Urbani,[1],0.4
same,Binding of serum 2 to looped/cyclic peptides of protein X1 of SARS-CoV Urbani,[1],0.2
same,Binding of serum 6 to linear peptides of protein X1 of SARS-CoV Urbani,[1],0.5
same,Binding of serum 6 to looped/cyclic peptides of protein X1 of SARS-CoV Urbani,[1],0.2
same,Binding of serum 37 to linear peptides of protein X1 of SARS-CoV Urbani,[1],0.7
same,Binding of serum 37 to looped/cyclic peptides of protein X1 of SARS-CoV Urbani,[1],0.5
same,Binding of serum 62 to linear peptides of protein X1 of SARS-CoV Urbani,[1],0.5
same,Binding of serum 62 to looped/cyclic peptides of protein X1 of SARS-CoV Urbani,[1],0.4
same,Binding of serum London to linear peptides of protein X1 of SARS-CoV Urbani,[1],0.2
same,Binding of serum London to looped/cyclic peptides of protein X1 of SARS-CoV Urbani,[1],0.2
same,Binding of serum SARS-green to linear peptides of protein X1 of SARS-CoV Urbani,[1],0.2
same,Binding of serum SARS-green to looped/cyclic peptides of protein X1 of SARS-CoV Urbani,[1],0.3
same,Binding of serum SARS-yellow to linear peptides of protein X1 of SARS-CoV Urbani,[1],0.3
same,Binding of serum SARS-yellow to looped/cyclic peptides of protein X1 of SARS-CoV Urbani,[1],0.3
same,Binding of Control Serum Blood-Bank to Looped peptides,[2],0.4
same,Binding of Control serum Blood-bank to linear peptides,[2],0.4
same,Binding of Control serum LUMC to linear peptides,[2],0.5
same,Binding of Control serum LUMC to looped peptides,[2],0.4
same,Binding of a rabbit serum to linear peptides,[3],0.1
same,Binding of a rabbit serum to looped peptides,[3],0.6
VQIHTIDGSSGVANP,Binding of serum 1a to linear peptides of protein X1 of SARS-CoV Urbani,[1],0.7
same,Binding of serum 1a to looped/cyclic peptides of protein X1 of SARS-CoV Urbani,[1],0.4
same,Binding of serum 1b to linear peptides of protein X1 of SARS-CoV Urbani,[1],0.5
same,Binding of serum 1b to looped/cyclic peptides of protein X1 of SARS-CoV Urbani,[1],0.4
same,Binding of serum 2 to linear peptides of protein X1 of SARS-CoV Urbani,[1],0.6
same,Binding of serum 2 to looped/cyclic peptides of protein X1 of SARS-CoV Urbani,[1],0.3
same,Binding of serum 6 to linear peptides of protein X1 of SARS-CoV Urbani,[1],0.6
same,Binding of serum 6 to looped/cyclic peptides of protein X1 of SARS-CoV Urbani,[1],0.3
same,Binding of serum 37 to linear peptides of protein X1 of SARS-CoV Urbani,[1],0.7
same,Binding of serum 37 to looped/cyclic peptides of protein X1 of SARS-CoV Urbani,[1],0.4
same,Binding of serum 62 to linear peptides of protein X1 of SARS-CoV Urbani,[1],0.6
same,Binding of serum 62 to looped/cyclic peptides of protein X1 of SARS-CoV Urbani,[1],0.5
same,Binding of serum London to linear peptides of protein X1 of SARS-CoV Urbani,[1],0.3
same,Binding of serum London to looped/cyclic peptides of protein X1 of SARS-CoV Urbani,[1],0.2
same,Binding of serum SARS-green to linear peptides of protein X1 of SARS-CoV Urbani,[1],0.2
same,Binding of serum SARS-green to looped/cyclic peptides of protein X1 of SARS-CoV Urbani,[1],0.3
same,Binding of serum SARS-yellow to linear peptides of protein X1 of SARS-CoV Urbani,[1],0.4
same,Binding of serum SARS-yellow to looped/cyclic peptides of protein X1 of SARS-CoV Urbani,[1],0.1
same,Binding of Control Serum Blood-Bank to Looped peptides,[2],0.3
same,Binding of Control serum Blood-bank to linear peptides,[2],0.5
same,Binding of Control serum LUMC to linear peptides,[2],0.5
same,Binding of Control serum LUMC to looped peptides,[2],0.4
same,Binding of a rabbit serum to linear peptides,[3],0.1
same,Binding of a rabbit serum to looped peptides,[3],0.4
